Earlier results in paper PMC11489133, “Obicetrapib exhibits favorable physiochemical and pharmacokinetic properties compared to previous cholesteryl ester transfer protein inhibitors: An integrated summary of results from non‐human primate studies and clinical trials” (Pharmacology Research & Perspectives, 2024).
Read-outs that look alike come from different tables or passages of the source. Marks after values point to notes of the source that are not given here.

Set-up: method as in PMID 24628035
Conditions: cited from earlier work; for t ½ (terminal half‐life): arithmetic mean (CV%)
[1] = single dose 5 mg, after a standard breakfast, geometric mean (CV%)
[2] = single dose 10 mg, after a standard breakfast, geometric mean (CV%)

SMILES: CCOC(=O)N1c2ccc(C(F)(F)F)cc2C(N(Cc2cc(C(F)(F)F)cc(C(F)(F)F)c2)c2ncc(OCCCC(=O)O)cn2)CC1CC (stereo not shown) [Obicetrapib]
- t ½ (terminal half‐life) (multiple daily doses 5 mg, after the last dose): 148 (30%) h
- t max (multiple daily doses 5 mg, after the last dose, median (minimum, maximum)): 4 (3, 8) h
- C max (multiple daily doses 5 mg, steady state, after the last dose, geometric mean (CV%)): 436 (18%) ng/mL
- AUC (0, τ, ss) (multiple daily doses 5 mg, steady state, τ 24 h, geometric mean (CV%)): 7606 (20%) ^f ng·h/mL
- Rac (accumulation ratio, AUC(0,τ,ss)/AUC(0–24 h)) (multiple daily doses 5 mg): 4.3 (1.1)
- Rac (accumulation ratio, AUC(0,τ,ss)/AUC(0–24 h)) (multiple daily doses 5 mg, listed as obicetrapib): 4.3
- t ½ (terminal half‐life) (multiple daily doses 10 mg, after the last dose): 131 (19%) h
- t max (multiple daily doses 10 mg, after the last dose, median (minimum, maximum)): 6 (4, 8) h
- C max (multiple daily doses 10 mg, steady state, after the last dose, geometric mean (CV%)): 692 (23%) ng/mL
- Rac (accumulation ratio, AUC(0,τ,ss)/AUC(0–24 h)) (multiple daily doses 10 mg): 3.7 (0.8)
- Rac (accumulation ratio, AUC(0,τ,ss)/AUC(0–24 h)) (multiple daily doses 10 mg, listed as obicetrapib): 3.7
- t ½ (terminal half‐life) (multiple daily doses 25 mg, after the last dose): 121 (23%) h
- t max (multiple daily doses 25 mg, after the last dose, median (minimum, maximum)): 4 (2, 6) h
- C max (multiple daily doses 25 mg, steady state, after the last dose, geometric mean (CV%)): 1398 (18%) ng/mL
- Rac (accumulation ratio, AUC(0,τ,ss)/AUC(0–24 h)) (multiple daily doses 25 mg): 2.1 (0.3)
- Rac (accumulation ratio, AUC(0,τ,ss)/AUC(0–24 h)) (multiple daily doses 25 mg, listed as obicetrapib): 2.1
- t max (multiple daily doses, all doses except 10 mg): 4 h
- obicetrapib in urine (multiple doses, any participant): not detected
- AUC (0–24 h) [1]: 1796 (14%) ng·h/mL
- C max [1]: 116 (13%) ng/mL
- t max (single dose 5 mg, after a standard breakfast, median (minimum, maximum)): 6 (4, 8) h
- AUC (0–24 h) [2]: 3471 (18%) ng·h/mL
- C max [2]: 245 (14%) ng/mL
- t max (single dose 10 mg, after a standard breakfast, median (minimum, maximum)): 6 (4, 8) h
- C max (single dose 25 mg, after a standard breakfast, geometric mean (CV%)): 750 (19%) ng/mL
- t max (single dose 25 mg, after a standard breakfast, median (minimum, maximum)): 6 (3, 8) h
- t max (single dose regardless of the strength of the dose (1–25 mg)): 6 h
- time in which plasma levels were approaching steady state (visual inspection of trough concentrations, multiple once daily doses): within one to two weeks
